Measurements as given in article PMC11327196, “A phase 1 study to assess the absolute bioavailability, mass balance, pharmacokinetics, metabolism, and excretion of [^14C]-mobocertinib, an oral inhibitor of EGFR exon 20 insertion mutations, in healthy participants” (Investigational New Drugs, 2024).

Key:
[1] = oral doses ranging from 5 to 180 mg; cited from earlier work
[2] = Period 1 absolute bioavailability study: plasma PK after IV microdose of [14C]-mobocertinib; format: in vivo, human
Method: This was a two-period, open-label, single-dose phase 1 study (NCT03811834) conducted at one clinical site (Celerion, Lincoln, Nebraska, USA) in healthy male participants. The primary objective of Period 1 was to determine the absolute bioavailability of mobocertinib following a single oral dose of 160 mg mobocertinib as capsules and a single intravenous (IV) microdose of 50 µg (~ 2 µCi) [^14C]-mobocertinib. The primary objectives of Period 2 were to (1) assess the cumulative excretion of total radioactivity in urine and feces (mass balance); (2) assess the metabolite profile of mobocertinib in plasma, urine, and feces; and (3) characterize the PK of mobocertinib, AP32960, and AP32914 in plasma, whole blood, and urine, and total radioactivity concentration equivalents in plasma and whole blood following a single oral dose of 160 mg (~ 100 µCi) [^14C]-mobocertinib as an oral solution. A sample size of 6 healthy males was selected without statistical considerations and deemed adequate to meet the study objectives. Furthermore, the sample size was limited based on clinical considerations for human ADME studies and to limit exposure to radioactivity.
On Day 1 of Period 1, following an overnight fast of at least 10 h, participants received a single 160 mg dose of non-radiolabeled mobocertinib as capsules. At 3.75 h post oral dosing (i.e., 15 min before the median oral tmax of ~ 4 h), participants received a nominal dose of 50 µg (~ 2 µCi) [^14C]-mobocertinib as a 15-minute IV infusion. However, due to nonspecific binding of [^14C]-mobocertinib to the dosing syringe and tubing, actual doses administered ranged from 36.8 to 38.7 µg (1.47 to 1.55 µCi). Participants were required to stay in the clinic from Day − 1 through at least the 96-hour blood draw (Day 5) or until a discharge criterion was met (i.e., ≥ 80% of the total administered radioactive dose was recovered in urine and fecal samples or excretion of radioactivity in urine and feces combined had declined to ≤ 1% of the total administered dose per day for ≥ 2 consecutive intervals), up to a maximum of 7 days postdose (Day 8). Blood samples for the measurement of plasma mobocertinib, AP32960, and AP32914 concentrations were collected predose and at 0.5, 1, 2, 3, 4, 5, 6, 8, 12, 24, 36, 48, 72, and 96 h after oral administration. Additional blood samples to determine [^14C]-total radioactivity, [^14C]-mobocertinib, [^14C]-AP32960, and [^14C]-AP32914 in plasma were collected at 3.75 h after oral dosing (i.e., predose for [^14C] assessments), at the end of the IV infusion, and at 10, 20, and 30 min, and 1, 2, 4, 8, 20, 32, 44, 68, and 92 h after the end of infusion. […] Urine and feces were collected before oral dosing (− 48–0 h); urine was collected over 0–3.75 h, 3.75–12 h and 12–24 h after oral dosing; feces were collected from 0 to 3.75 h and 3.75–24 h after oral dosing; both urine and feces were then collected over 24-hour intervals until a discharge criterion was met, or up to Day 8 (168 h postdose).
Plasma, whole blood, and urine samples were assayed for mobocertinib, AP32960, and AP32914 concentrations using liquid chromatography-tandem mass spectrometry (Q2 Solutions, Ithaca, New York, USA). The analytical range for each analyte was 0.250 to 500 ng/mL in whole blood and plasma, and 1.00 to 1000 ng/mL in urine. […] Urine and fecal samples were assayed for total radioactivity following the IV dose of [^14C]-mobocertinib in Period 1, and whole blood, plasma, urine, and fecal samples were assayed for total radioactivity following the oral dose of [^14C]-mobocertinib in Period 2 using liquid scintillation counting (LSC; Celerion, Lincoln, Nebraska, USA; LLOQs: Period 1 urine: 0.115–0.118 ng eq/g, feces: 0.720–0.759 ng eq/g; Period 2 whole blood: 87.3–112 ng eq/g, plasma: 116–132 ng eq/mL, urine: 37.8–46.8 ng eq/g, feces: 110–336 ng eq/g across participants). […]

[3] = Period 1, IV infusion 50 µg [14C]-mobocertinib, geometric mean (geometric CV%)
[4] = Period 1, IV infusion 50 µg [14C]-mobocertinib, normalized to a 160 mg dose, geometric mean (geometric CV%)

Molecule | median time to maximum observed concentration (tmax) [1] [h] | tmax ([2]; Period 1, 15-min IV infusion 50 µg (~2 µCi) [14C]-mobocertinib, median (range)) | CL/F (after IV administration, values represent CL) [2, 3] | Vz/F (after IV administration, values represent Vz) [2, 3] | t1/2z [2, 3] | AUC∞ [2, 4] | Cmax [2, 4]
C=CC(=O)Nc1cc(Nc2ncc(C(=O)OC(C)C)c(-c3cn(C)c4ccccc34)n2)c(OC)cc1N(C)CCN(C)C [Mobocertinib] | 4 |  |  |  |  |  | 
[^14C]-mobocertinib |  | 0.26 (0.26–1.25) h | 55.9 (30.0) L/h | 1791 (45.3) L | 22.2 (41.3) h | 2864 (30.0) ng*h/mL | 624.9 (43.6) ng/mL
